Reference: patent publication US9023821B2, “Use of MicroRNA for treating diseases associated with a dysfunction of the cilia in multiciliated epithelial cells” (Centre National de la Recherche Scientifique, priority 2009, dated 2015)

Experiments:
[1] = tested on: human airway epithelial cells (HAECs); experiment: High-throughput sequencing (HTS) of miRNAs at four stages of differentiation of HAECs; conditions: for Modulation (ratio of the level of intensity of expression in log2 in two stages of differentiation) measured by high-throughput sequencing, D7 − D0 / Modulation (ratio of the level of intensity of expression in log2 in two stages of differentiation) measured by high-throughput sequencing, FC − D7 / Modulation (ratio of the level of intensity of expression in log2 in two stages of differentiation) measured by high-throughput sequencing, WD − D0 / Modulation (ratio of the level of intensity of expression in log2 in two stages of differentiation) measured by high-throughput sequencing, WD − FC / Level of intensity of expression in log2 measured by high-throughput sequencing, D0 / Level of intensity of expression in log2 measured by high-throughput sequencing, D7 / Level of intensity of expression in log2 measured by high-throughput sequencing, FC / Level of intensity of expression in log2 measured by high-throughput sequencing, WD: Table VI; for Level of intensity of expression in log2 At the differentiated stage (WD) measured in HTS: healthy human airway epithelial tissue; for Level of intensity of expression in log2 measured by high-throughput sequencing, D0: stage D0; for Level of intensity of expression in log2 measured by high-throughput sequencing, D7: stage D7; for Level of intensity of expression in log2 measured by high-throughput sequencing, FC: stage FC; for Level of intensity of expression in log2 At the differentiated stage (WD) measured in HTS / Level of intensity of expression in log2 measured by high-throughput sequencing, WD: stage WD
Description: The total RNAs were extracted from HAECs cultivated at the air-liquid interface at four stages of differentiation: ALI-D0 (0 day), ALI-D7 (7 days), ALI-FC (during appearance of the first cilia at about 14 days) and ALI-WD (wholly differentiated at about 21 days). The cells are lysed in reagent with Trizol® (Invitrogen). The total RNAs containing small RNAs and microRNAs are purified on Qiagen RNEasy columns (Qiagen) according to the supplier's instructions.
The total RNAs containing small RNAs and microRNAs are isolated as before. The procedure is based on the Applied Biosystems Ligase-Enhanced Genome Detection technology (LEGenD™); the SOLiD™ Small RNA Expression kit (Applied Biosystems, France) was used. With this method it is possible to convert the small RNAs of a sample into a library of double-stranded DNA; it was developed by Applied Biosystems SOLiD™ System for a new generation of high-throughput sequencing.
The high-throughput sequencing of the microRNAs was carried out according to the supplier's recommendations. Briefly, the total RNAs containing the small RNAs are hybridized (65° C., 10 min, then at 16° C., 5 min) and ligated (16° C., 2-16 h in a thermocycler) with the Adaptor Mix A for producing a matrix for sequencing the 5′ end of the small RNAs, or with the Adaptor Mix B for sequencing the 3′ end. The samples are then reverse-transcribed (42° C., 30 min) to synthesize the complementary DNA (cDNA). The library of small RNAs is amplified by PCR and after migration on polyacrylamide gel the amplified small RNAs are cut out and extracted from the gel according to their size (length of about 105-150 bases, according to the supplier's instructions), eluted and resuspended in nuclease-free water. The concentration of nucleic acids is then measured and normalized before proceeding with preparation of the samples for sequencing.
For each microRNA sequenced, the number of sequences of the 5p strand and of the 3p strand of the microRNA was normalized to 10^6 sequences and converted to percentage abundance of expression for each of the microRNAs. The data were then normalized according to a linear model and an empirical Bayesian method using software R. For subsequent analyses, only the microRNAs were retained for which the percentage expression (or abundance) is greater than 1% of the total of the microRNAs in at least one culture condition, with a |Log2 Ratio| below 0.5 and an adjusted P-value below 0.05.

[2] = tested on: human airway epithelial cells (HAECs); experiment: Agilent miRNA chips, miRNA expression at four stages of differentiation of HAECs; conditions: for Modulation (ratio of the level of intensity of expression in log2 in two stages of differentiation) measured with the Agilent chips, D7 − D0 / Modulation (ratio of the level of intensity of expression in log2 in two stages of differentiation) measured with the Agilent chips, FC − D7 / Modulation (ratio of the level of intensity of expression in log2 in two stages of differentiation) measured with the Agilent chips, WD − D0 / Modulation (ratio of the level of intensity of expression in log2 in two stages of differentiation) measured with the Agilent chips, WD − FC / Level of intensity of expression in log2 measured with the Agilent chips, D0 / Level of intensity of expression in log2 measured with the Agilent chips, D7 / Level of intensity of expression in log2 measured with the Agilent chips, FC / Level of intensity of expression in log2 measured with the Agilent chips, WD: Table VI; for Modulation (ratio of the level of intensity of expression in log2 at two stages of differentiation), FC − D7 / Modulation (ratio of the level of intensity of expression in log2 at two stages of differentiation), WD − FC: Agilent miRNA chips, Table V; for Level of intensity of expression in log2 measured with the Agilent chips, D0: stage D0; for Level of intensity of expression in log2 measured with the Agilent chips, D7: stage D7; for Level of intensity of expression in log2 measured with the Agilent chips, FC: stage FC; for Level of intensity of expression in log2 measured with the Agilent chips, WD: stage WD
Description: In parallel with the high-throughput sequencing of the microRNAs, the repertoire of expression of the microRNAs (microRNAome) is investigated using the technology of Agilent® microRNA chips. For this, RNA samples from the same patients as before were used, labeled and hybridized on Agilent® miRNA chips (Human miRNA Microarray v2, containing 866 human miRNAs and 89 human viral miRNAs, i.e. all the human miRNAs contained and referenced in Sanger miRBase v.12.0, Agilent Technologies, France) using the “miRNA labeling and hybridization” kit, following the supplier's instructions (Agilent Technologies).
The inventors then used the Agilent miRNA chips to investigate the repertoire of expression of the miRNAs of the human airway epithelium and compare the results obtained in high-throughput sequencing with those obtained with Agilent® commercial miRNA chips.

[3] = tested on: basal cells and pyramidal cells of the airway epithelium; experiment: miRNA expression in sorted basal cells versus pyramidal cells (ciliated + secretory), HTS and Agilent chips; design: species or system human; conditions: for Modulation of expression of the miRNAs in pyramidal cells (323(−)) relative to basal cells 323(+): HTS and Agilent chips; for Intensity of the level of expression in log2 in pyramidal cells (323(−)): pyramidal cells (ciliated + secretory)
Method: After dissociation of the stroma of nasal polyps, the epithelial cells (about 20.10^6) are incubated in PBS-BSA-EDTA for 30 min and then incubated with labeled antibody CD151-PE and anti-TF (tissue factor)-FITC for 20 min, 4° C. (see Hajj, R. et al., Stem Cells 25, 139-148 (2007)). After washing twice, the cells are taken up in PBS-EDTA and incubated with DAPI for labeling the cells whose integrity has been altered.
Cell sorting was carried out on the FACSAria sorter (BD Biosciences) equipped with 3 lasers, blue, red and violet. Dead cells, aggregates and double cells were excluded. The doubly positive population of basal cells (CD151+/FT+) and the negative population of cylindrical cells (containing ciliated cells and mucus-secreting cells) (CD151−/FT−) were selected and sorted at a rate of 5000 events/s ([…]). The purity and identity of the sorted cells were then verified by cytometry and immunocytochemistry.
Like the native airway epithelium, the model of differentiation in vitro used in these tests consists of basal cells, ciliated cells and mucus-secreting cells. In order to identify the repertoires of the miRNAs specific to each of the cellular types, the inventors used cell sorting by flow cytometry by means of specific markers (Hajj, R. et al. 2007). Using this technique, adult airway progenitor cells (corresponding a priori to basal cells) were isolated, selected and sorted (such cells appear doubly positive for tetraspanin CD151 and for the tissue factor) from the pyramidal cells (i.e. ciliated cells and mucus-secreting cells) which appear negative for these same markers. These were purified from polyps or from nasal conchae obtained from 3 separate donors.
After extracting the total RNAs, the expression profiles of the miRNAs were established by means of Agilent® commercial chips or by high-throughput sequencing (HTS). […] For the first time, the inventors thus attribute a repertoire of expression of the miRNAs specifically to separate cellular types of the airway epithelium during differentiation.

Substance | Modulation (ratio of the level of intensity of expression in log2 in two stages of differentiation) measured by high-throughput sequencing, D7 − D0 [1] | Modulation (ratio of the level of intensity of expression in log2 in two stages of differentiation) measured by high-throughput sequencing, FC − D7 [1] | Modulation (ratio of the level of intensity of expression in log2 in two stages of differentiation) measured by high-throughput sequencing, WD − D0 [1] | Modulation (ratio of the level of intensity of expression in log2 in two stages of differentiation) measured by high-throughput sequencing, WD − FC [1] | Level of intensity of expression in log2 At the differentiated stage (WD) measured in HTS [1] | Level of intensity of expression in log2 measured by high-throughput sequencing, D0 [1] | Level of intensity of expression in log2 measured by high-throughput sequencing, D7 [1] | Level of intensity of expression in log2 measured by high-throughput sequencing, FC [1] | Level of intensity of expression in log2 measured by high-throughput sequencing, WD [1] | Modulation (ratio of the level of intensity of expression in log2 in two stages of differentiation) measured with the Agilent chips, D7 − D0 [2] | Modulation (ratio of the level of intensity of expression in log2 at two stages of differentiation), FC − D7 [2] | Modulation (ratio of the level of intensity of expression in log2 in two stages of differentiation) measured with the Agilent chips, FC − D7 [2] | Modulation (ratio of the level of intensity of expression in log2 in two stages of differentiation) measured with the Agilent chips, WD − D0 [2] | Modulation (ratio of the level of intensity of expression in log2 at two stages of differentiation), WD − FC [2] | Modulation (ratio of the level of intensity of expression in log2 in two stages of differentiation) measured with the Agilent chips, WD − FC [2] | Level of intensity of expression in log2 measured with the Agilent chips, D0 [2] | Level of intensity of expression in log2 measured with the Agilent chips, D7 [2] | Level of intensity of expression in log2 measured with the Agilent chips, FC [2] | Level of intensity of expression in log2 measured with the Agilent chips, WD [2] | Modulation of expression of the miRNAs in pyramidal cells (323(−)) relative to basal cells 323(+) [3] | other results
hsa-let-7f: human miRNA, SEQ ID No. 161 (UGAGGUAGUAGAUUGUAUAGUU; expressed or natural sequence; listed as Homo sapiens) | 0.22 log2 | −0.56 log2 | 0.11 log2 | 0.45 log2 | 5.35 log2 | 5.24 log2 | 5.46 log2 | 4.90 log2 | 5.35 log2 | 1.63 log2 | −0.73 log2 | −0.73 log2 | 1.08 log2 | 0.17 log2 | 0.17 log2 | 11.11 log2 | 12.75 log2 | 12.01 log2 | 12.19 log2 | −0.94 | Intensity of the level of expression in log2 in basal cells (323(+)) [3]: 10.82 log2; Intensity of the level of expression in log2 in pyramidal cells (323(−)) [3]: 9.88 log2
hsa-let-7g: human miRNA, SEQ ID No. 162 (UGAGGUAGUAGUUUGUACAGUU; expressed or natural sequence; listed as Homo sapiens) | −0.24 log2 | −0.03 log2 | 0.56 log2 | 0.83 log2 | 12.40 log2 | 11.84 log2 | 11.60 log2 | 11.57 log2 | 12.40 log2 | 1.83 log2 | −0.54 log2 | −0.54 log2 | 1.50 log2 | 0.21 log2 | 0.21 log2 | 9.30 log2 | 11.12 log2 | 10.59 log2 | 10.80 log2 | −0.15 | Intensity of the level of expression in log2 in basal cells (323(+)) [3]: 8.37 log2; Intensity of the level of expression in log2 in pyramidal cells (323(−)) [3]: 8.22 log2
hsa-miR-15a: human miRNA, SEQ ID No. 9 (UAGCAGCACAUAAUGGUUUGUG; expressed or natural sequence; listed as Homo sapiens) | 1.41 log2 | −0.19 log2 | 1.57 log2 | 0.35 log2 | 7.68 log2 | 6.11 log2 | 7.52 log2 | 7.33 log2 | 7.68 log2 | 2.36 log2 | −0.39 log2 | −0.39 log2 | 1.87 log2 | −0.10 log2 | −0.10 log2 | 7.74 log2 | 10.10 log2 | 9.71 log2 | 9.61 log2 | −2.10 | Intensity of the level of expression in log2 in basal cells (323(+)) [3]: 7.86 log2; Intensity of the level of expression in log2 in pyramidal cells (323(−)) [3]: 5.75 log2
